pIC50: −log10 of the molar value.
How the values were obtained:
[1] = tested on: Cryptococcus neoformans B66663; test: Antifungal activity in vitro (resazurin susceptibility screen), Inf. F; type: cell-based; settings: Cryptococcus neoformans, B66663, Cryptococcus neoformans B66663; 37 °C, 24 hours, resa time 4 hours
In short: (§1)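 Compound dilutions spotted on plates, highest in-test concentration 64 μM. Inoculum of 10^3 cfu/well in RPMI-MOPS pH 7.0 added, then incubated by species (yeasts 24 h at 37° C; dermatophytes one week or more at 27° C). Resazurin added for a further period before fluorescence reading.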

[2] = tested on: Trichophyton mentagrophytes B70554; test: Antifungal activity in vitro (resazurin susceptibility screen), Inf. G; type: cell-based; settings: Trichophyton mentagrophytes, B70554, Trichophyton mentagrophytes B70554; 27 °C, 7 days, resa time 24 hours
In short: as §1

[3] = tested on: Mucor circinelloides IHEM21105; test: Antifungal activity in vitro (resazurin susceptibility screen), Inf. L; type: cell-based; settings: 27 °C, 48 hours, resa time 17 hours
In short: as §1

[4] = tested on: Scedosporium apiospermum IHEM3817; test: Antifungal activity in vitro (resazurin susceptibility screen), Inf. H; type: cell-based; settings: Scedosporium apiospermum, IHEM3817, Scedosporium apiospermum IHEM3817; 37 °C, 48 hours, resa time 17 hours
In short: as §1

[5] = tested on: Aspergillus fumigatus B42928; test: Antifungal activity in vitro (resazurin susceptibility screen), Inf. E; type: cell-based; settings: Aspergillus fumigatus, B42928, Aspergillus fumigatus B42928; 27 °C, 48 hours, resa time 17 hours
In short: as §1

[6] = tested on: Scedosporium prolificans IHEM21157; test: Antifungal activity in vitro (resazurin susceptibility screen), Inf. I; type: cell-based; settings: Lomentospora prolificans, 37 °C, 48 hours, resa time 17 hours
In short: as §1

Rhizopus oryzae IHEM5223 = test: Antifungal activity in vitro (resazurin susceptibility screen), Inf. J; type: cell-based; settings: Rhizopus arrhizus, 37 °C, 24 hours, resa time 6 hours
In short: as §1

[7] = tested on: Rhizomucor miehei IHEM13391; test: Antifungal activity in vitro (resazurin susceptibility screen), Inf. K; type: cell-based; settings: Rhizomucor miehei, IHEM13391, Rhizomucor miehei IHEM13391; 37 °C, 48 hours, resa time 17 hours
In short: as §1

Microsporum canis B68128 = test: Antifungal activity in vitro (resazurin susceptibility screen), Inf. B; type: cell-based; settings: Microsporum canis, B68128, Microsporum canis B68128; 27 °C, 9 days, resa time 24 hours
In short: as §1

[8] = tested on: Sporothrix schenkii B62482; test: Antifungal activity in vitro (resazurin susceptibility screen), Inf. A; type: cell-based; settings: Sporothrix, B62482, Sporothrix schenkii B62482; 27 °C, 4 days, resa time 24 hours
In short: as §1

[9] = tested on: Trichophyton rubrum B68183; test: Antifungal activity in vitro (resazurin susceptibility screen), Inf. C; type: cell-based; settings: Trichophyton rubrum, B68183, Trichophyton rubrum B68183; 27 °C, 7 days, resa time 24 hours
In short: as §1

[10] = tested on: Microsporum canis (strain B68128); test: Test D.4.1: activity against M. canis in guinea-pigs after oral treatment for 7 consecutive days; type: in vivo; set-up: key to semi-quantitative lesion score (mean): lesion score 0–3.5 by severity and size of lesion
Description: (§2) The animals used in the tests described below were female Guinea pigs (Duncan-Hartley, Charles River, 200 g). These animals were kept in groups of 2 or 3 in cages of 56×33×20 cm^3. Food pellets (Carfil Quality) and water were available ad libitum in addition to a small daily amount of hay. Standard husbandry conditions were adopted: room temperature: 22° C., humidity level: 60% and a day-night cycle of 12 h.
(§3) For the preparation of inoculums, Microsporum canis (strain B68128) was grown on Sabouraud Dextrose Agar (SDA) plates for at least one week (7-10 days) before infection (27° C.). On the day of infection, spores were harvested by adding 4-5 ml sterile water on the plate and suspending the infectious material with a bend Pasteur pipette. From the recollected fluid, 10 μl was added to a KOVA counting chamber for determination of the number of spores in 1 square (average of several squares). If needed, additional dilutions (10× or 100×) were prepared. The average number of spores in one square×dilution×90.000=cfu/ml. An inoculum of 1×10^7 cfu/ml was prepared in a honey-water mixture (50%-50%).
(§4) In the tests described below, semi-quantitative lesion scores were given based on different clinical parameters. Scores between 0 and 3.5 were assigned based on the severity and size of the lesion. The criteria are listed in detail in Table 6.
The dorsum of the guinea pigs was shaved and further depilated for 3 minutes with Veet® creme before scarification with a steel brush. An inoculum of 10^6 cfu in 150 μl (75 mQ+75 μl honey) was applied to the wound using a micropipette with disposable tips. The animal was kept immobilized until the inoculum had completely dried. […]
vehicle: methocel 0.5%, Tween 80® (polysorbate 80), demineralised water reference compound: itraconazole at 6.25 mg/ml test compounds: prepared at 25 mg/ml, subsequently further diluted
Oral treatment (gavage 0.16 ml/100 g once daily) was started about 2 hours before infection and continued once daily for 7 consecutive days. The animals were weighed after 3 days of treatment to adjust for the dose.
Developments of lesions were evaluated following the semi-quantitative lesion scoring system (see Table 6) on days 3, 5, 7, 10, 12, 14, 17 and 20. The results are show in Table 7 (“DPI” means days post infection). Reported values in Table 7 are mean values.

[11] = tested on: Candida parapsilosis B66126; test: Antifungal activity in vitro (resazurin susceptibility screen), Inf. D; type: cell-based; settings: Lodderomyces parapsilosis, B66126, Candida parapsilosis B66126; 37 °C, 24 hours, resa time 4 hours
In short: as §1

[12] = tested on: Microsporum canis (strain B68128); test: Analogous protocol: comparison compounds (G10, G11) against M. canis in guinea pigs after oral treatment; type: in vivo; set-up: key to semi-quantitative lesion score (mean): lesion score 0–3.5 by severity and size of lesion; settings: oral 50 mg/kg once daily for 7 days
Description: as §2, §3, §4
For the sake of comparison, 2 compounds not having the 1,1-difluoroethyl moiety in the R^5 or R^6 position, were tested in an analogous protocol:
The dorsum of the guinea pigs was shaved and further depilated for 7 minutes with Veet® creme before scarification with a steel brush. An inoculum of 10^6 cfu in 200 μl (100 μl mQ+100 μl honey) was applied to the wound using a micropipette with disposable tips. The animal was kept immobilized until the inoculum had completely dried.
Vehicle: methocel F4M Premium EP, Tween 80® (polysorbate 80), demineralised water.
Test compounds: prepared at 30 mg/ml, subsequently further diluted until 6 mg/ml.
Oral treatment (gavage 0.40 ml/guinea pig once daily) was started about 2 hours before infection and continued once daily for 7 consecutive days.
Developments of lesions were evaluated following the semi-quantitative lesion scoring system (see Table 6) on days 3, 5, 7, 10, 12, 14, 18 and 21. Reported values in Table 8 are mean values.

For `CC(F)(F)c1cccc(C2=NCc3c(Cl)cccc3-n3cccc32)c1` [Compound 14, 7-chloro-4-[3-(1,1-difluoroethyl)phenyl]-6H-pyrrolo[1,2-a][1,4]benzodiazepine], the pIC50 [1] was 4.43, the melting point was 106.9 to 109.7 °C and the pIC50 [2] was 6.22. It also gave a pIC50 [3] of less than 4.19, a pIC50 [4] of 5.76 and a pIC50 [5] of 5.70. It also gave a pIC50 [6] of 5.88, a pIC50 (Rhizopus oryzae IHEM5223) of less than 4.19 and a pIC50 [7] of 4.34. It also gave a pIC50 (Microsporum canis B68128) of 6.28, a pIC50 [8] of 4.36 and a pIC50 [9] of 6.43. For the same compound, the “semi-quantitative lesion score (mean)” value ([10]; oral 10 mg/kg once daily for 7 days, 3 DPI) was 0.33, the “semi-quantitative lesion score (mean)” value ([10]; oral 10 mg/kg once daily for 7 days, 5 DPI) was 1.17 and the “semi-quantitative lesion score (mean)” value ([10]; oral 10 mg/kg once daily for 7 days, 7 DPI) was 2.00. The “semi-quantitative lesion score (mean)” value ([10]; oral 10 mg/kg once daily for 7 days, 10 DPI) was 2.17, the “semi-quantitative lesion score (mean)” value ([10]; oral 10 mg/kg once daily for 7 days, 12 DPI) was 2.33 and the “semi-quantitative lesion score (mean)” value ([10]; oral 10 mg/kg once daily for 7 days, 14 DPI) was 2.17. For the same compound, the “semi-quantitative lesion score (mean)” value ([10]; oral 10 mg/kg once daily for 7 days, 17 DPI) was 1.67, the “semi-quantitative lesion score (mean)” value ([10]; oral 10 mg/kg once daily for 7 days, 20 DPI) was 1.17 and the “semi-quantitative lesion score (mean)” value ([10]; oral 20 mg/kg once daily for 7 days, 3 DPI) was 0. The “semi-quantitative lesion score (mean)” value ([10]; oral 20 mg/kg once daily for 7 days, 5 DPI) was 0.33, the “semi-quantitative lesion score (mean)” value ([10]; oral 20 mg/kg once daily for 7 days, 7 DPI) was 0.83 and the “semi-quantitative lesion score (mean)” value ([10]; oral 20 mg/kg once daily for 7 days, 10 DPI) was 1.67. For the same compound, the “semi-quantitative lesion score (mean)” value ([10]; oral 20 mg/kg once daily for 7 days, 12 DPI) was 2.00, the “semi-quantitative lesion score (mean)” value ([10]; oral 20 mg/kg once daily for 7 days, 14 DPI) was 1.67 and the “semi-quantitative lesion score (mean)” value ([10]; oral 20 mg/kg once daily for 7 days, 17 DPI) was 1.50. For the same compound, the “semi-quantitative lesion score (mean)” value ([10]; oral 20 mg/kg once daily for 7 days, 20 DPI) was 0.67, the “activity compared with the terbinafine group (G2, 10 mg/kg)” value ([10]; oral 40 mg/kg once daily for 7 days) was “comparable to G2” and the “semi-quantitative lesion score (mean)” value ([10]; oral 40 mg/kg once daily for 7 days, 3 DPI) was 0. The “semi-quantitative lesion score (mean)” value ([10]; oral 40 mg/kg once daily for 7 days, 5 DPI) was 0.17, the “semi-quantitative lesion score (mean)” value ([10]; oral 40 mg/kg once daily for 7 days, 7 DPI) was 0.67 and the “semi-quantitative lesion score (mean)” value ([10]; oral 40 mg/kg once daily for 7 days, 10 DPI) was 1.17. The “semi-quantitative lesion score (mean)” value ([10]; oral 40 mg/kg once daily for 7 days, 12 DPI) was 0.83, the “semi-quantitative lesion score (mean)” value ([10]; oral 40 mg/kg once daily for 7 days, 14 DPI) was 0.50 and the “semi-quantitative lesion score (mean)” value ([10]; oral 40 mg/kg once daily for 7 days, 17 DPI) was 0.17. For the same compound, the “semi-quantitative lesion score (mean)” value ([10]; oral 40 mg/kg once daily for 7 days, 20 DPI) was 0.17 and the pIC50 [11] was 5.52.

In the case of `CCc1cccc(C2=NCc3c(Cl)cccc3-n3cccc32)c1` [Compound G10], the “activity against M. canis (in words)” value [12] was “partial activity”, the “activity compared with present compounds 14 and 4 (G7 and G4, both at 40 mg/kg)” value [12] was “less active” and the “semi-quantitative lesion score (mean)” value ([12]; 3 DPI) was 0. For the same compound, the “semi-quantitative lesion score (mean)” value ([12]; 5 DPI) was 0.5, the “semi-quantitative lesion score (mean)” value ([12]; 7 DPI) was 1 and the “semi-quantitative lesion score (mean)” value ([12]; 10 DPI) was 1. The “semi-quantitative lesion score (mean)” value ([12]; 12 DPI) was 2, the “semi-quantitative lesion score (mean)” value ([12]; 14 DPI) was 1 and the “semi-quantitative lesion score (mean)” value ([12]; 18 DPI) was 1. For the same compound, the “semi-quantitative lesion score (mean)” value ([12]; 21 DPI) was 0.5.

For `CCc1ccc(C2=NCc3c(Cl)cccc3-n3cccc32)cc1` [Compound G11], the “activity against M. canis (in words)” value [12] was “partial activity”, the “activity compared with present compounds 14 and 4 (G7 and G4, both at 40 mg/kg)” value [12] was “less active” and the “semi-quantitative lesion score (mean)” value ([12]; 3 DPI) was 0. For the same compound, the “semi-quantitative lesion score (mean)” value ([12]; 5 DPI) was 0, the “semi-quantitative lesion score (mean)” value ([12]; 7 DPI) was 0.5 and the “semi-quantitative lesion score (mean)” value ([12]; 10 DPI) was 0.5. For the same compound, the “semi-quantitative lesion score (mean)” value ([12]; 12 DPI) was 0.5, the “semi-quantitative lesion score (mean)” value ([12]; 14 DPI) was 1 and the “semi-quantitative lesion score (mean)” value ([12]; 18 DPI) was 0.5. For the same compound, the “semi-quantitative lesion score (mean)” value ([12]; 21 DPI) was 0.5.

`CC(F)(F)c1ccc(C2=NCc3c(F)cc(Cl)cc3-n3cccc32)cc1` [Compound 32, 9-chloro-4-[4-(1,1-difluoroethyl)phenyl]-7-fluoro-6H-pyrrolo[1,2-a][1,4]benzodiazepine] showed a pIC50 [1] of 5.89, a melting point of 145.3 to 147.4 °C and a pIC50 [2] of 5.78. The pIC50 [3] was less than 4.19, the pIC50 [4] was less than 4.19 and the pIC50 [5] was 5.70. For the same compound, the pIC50 [6] was less than 4.19, the pIC50 (Rhizopus oryzae IHEM5223) was less than 4.19 and the pIC50 [7] was less than 4.19. For the same compound, the pIC50 (Microsporum canis B68128) was 5.78, the pIC50 [8] was 5.21 and the pIC50 [9] was 5.78. The pIC50 [11] was 5.56.

Source: patent publication US9637490B2, “Antifungal 5,6-dihydro-4-[(difluoroethyl)phenyl]-4H-pyrrolo[1,2-α][1,4]benzodiazepine and 4-(difluoroethyl)phenyl-6H-pyrrolo[1,2-α][1,4]benzodiazepine derivatives” (Janssen Pharmaceutica NV, priority 2010, dated 2017)
